In article PMC9571594, “Development of Semisynthetic Apoptosis-Inducing Agents Based on Natural Phenolic Acids Scaffold: Design, Synthesis and In-Vitro Biological Evaluation” (Molecules, 2022):
Converted amounts (≈) assume the structure as drawn. Like-named read-outs stand apart in the source and are kept apart here.

Key:
[1] = system: MCF-7 cells; test: MTT cell viability assay, MCF-7; type: cell-based, Human; conditions: Homo sapiens, MCF7; MTT, 48 h, average of triplicates; read-out: IC50 (μM) ± SD MCF-7
Protocol: (§1) MCF-7 cells (Human breast adenocarcinoma), HepG2 (human hepatocellular carcinoma), A549 (human lung adenocarcinoma), Caco-2 (colon carcinoma), PANC-1 (human pancreatic cancer), and Vero cells (derived from normal kidney cells) were supplied by (Holding Company for Biological Products and Vaccines VACSERA; Giza, Egypt). The cells were cultured in PRMI 1640 medium (Lonza, Switzerland) supplemented with 10% fetal bovine serum (Gibco), 1% penicillin and 1% streptomycin (Sigma Aldrich, Saint Louis, MO, USA) at 37 °C under an atmosphere of 5% CO2 and 95% air.
(§2) The effect of parent compounds and their derivatives were assessed by (3-(4,5-dimethylthiazol-2-yl)-2,5diphenyl-tetrazolium bromide) MTT assay. […] After a merged sheet of cells developed, the growth media was decanted from the 96-well microtiter and refilled with different concentrations of compounds (µg/mL), and the plate was incubated at 37 °C for 48 h to minimize exposure to the dissolving agent (Supporting Information).
(§3) MTT solution (BIO BASIC CANADA INC) was prepared [5 mg/mL in phosphate buffered saline (PBS)], added to each well and incubated for 4 h, then after removing the media, 200 μL of DMSO was added to each well to solubilize the formazan crystals and the optical density of the formazan product was measured at 560 nm using microplate reader (mindray, MR-96A). The results were calculated as the mean of the three independent experiments. […]
(§4) Determination of sample cytotoxicity on cells (MTT protocol) […]
(§5) well) and incubated at 37°C for 24 hours to develop a complete monolayer sheet.
(§6) 2- Growth medium was decanted from 96 well micro titer plates after confluent sheet of cells were formed, cell monolayer was washed twice with wash media.
(§7) 3- two-fold dilutions of tested sample was made in RPMI medium with 2% serum […]
(§8) 4- 0.1 ml of each dilution was tested in different wells leaving 3 wells as control, receiving only maintenance medium.
(§9) 5- Plate was incubated at 37°C and examined. Cells were checked for any physical signs of toxicity, e.g. partial or complete loss of the monolayer, rounding, shrinkage, […]
(§10) 6- MTT solution was prepared (5mg/ml in PBS) (BIO BASIC CANADA INC).
(§11) 8- 20ul MTT solution were added to each well. Place on a shaking table, 150rpm for 5 minutes, to thoroughly mix the MTT into the media.
(§12) 10) Dump off the media. (dry plate on paper towels to remove residue if necessary. […] 9 ش - ايلعلا هبضهلا - مطقملا / ىسيئرلا لمعملا […]

[2] = system: A549 cells; test: MTT cell viability assay, A549; type: cell-based, human
Protocol: as §1, §2, §3, §4, §5, §6, §7, §8, §9, §10, §11, §12

[3] = system: Caco-2 cancer cell line; test: MTT cell viability assay, Caco-2; type: cell-based
Protocol: as §1, §2, §3, §4, §5, §6, §7, §8, §9, §10, §11, §12

[4] = system: Caco-2 cells; test: Cell-cycle analysis by flow cytometry; type: cell-based; conditions: Caco-2 cells; for %G0–G1 / %G2/M / %S: cell-cycle distribution after treatment; for %Pre-G1: Pre-G1 = apoptotic population
Protocol: The potential candidates with anti-tumor effect on the Caco-2 cell line along with a high SI were chosen for cell-cycle analysis. The cell-cycle distribution and cell death were analyzed using Annexin V-FITC/PI staining and flow cytometry (Table 4, Figure 4).
In order to determine the percentage of viable, apoptotic and necrotic cells after treatment with our compounds, double-staining with fluorescein isothiocyanate (FITC) and PI was performed. Annexin V-FITC Apoptosis Detection Kit (BioVision, CA, USA) was used. Briefly, cultured Caco-2 were treated with the tested compounds or DMSO for 24h. Cells were then collected by centrifugation at 2000 rpm for 5 min, and the pellet was washed with PBS then centrifuged again at 2000 rpm for 5 min then resuspended in 500μL of the kit’s binding buffer before adding the Annexin V-FITC and PI. The cells were then incubated at room temperature in the dark for 5 min. […]
Assay : Cell Cycle Analysis
Kit used : ab139418_Propidium Iodide Flow Cytometry Kit/BD
Assay samples :Cell culture
Cpd. No. Cpd. No. Cpd. No. Cpd. No.

[5] = system: HepG2 cells; test: MTT cell viability assay, HepG2; type: cell-based, human
Protocol: as §1, §2, §3, §4, §5, §6, §7, §8, §9, §10, §11, §12

[6] = MTT cell viability assay on normal Vero cells (selectivity); type: cell-based; conditions: African green monkey, Vero cells (normal kidney cells)
Protocol: (§13) MCF-7 cells (Human breast adenocarcinoma), HepG2 (human hepatocellular carcinoma), A549 (human lung adenocarcinoma), Caco-2 (colon carcinoma), PANC-1 (human pancreatic cancer), and Vero cells (derived from normal kidney cells) were supplied by (Holding Company for Biological Products and Vaccines VACSERA; Giza, Egypt).
as §2, §3, §4, §5, §6, §7, §8, §9, §10, §11
(§14) 10) Dump off the media. (dry plate on paper towels to remove residue if necessary. […]

[7] = system: Vero normal cell line; test: as above; type: cell-based
Protocol: as §13, §2, §3, §4, §5, §6, §7, §8, §9, §10, §11, §14

`O=C(O)/C=C/c1ccc(O)c(O)c1` [Compound 1, Caffeic acid] gave an IC50 [1] of 970 µM, a Toxicity % ([2]; A549, 15.625 ug/ml) of 0.7435% and a Toxicity % ([2]; A549, 31.25 ug/ml) of 0.1239%. It also gave a Toxicity % ([2]; A549, 62.5 ug/ml) of 0.9913%, a Toxicity % ([2]; A549, 125 ug/ml) of 3.841% and a Toxicity % ([2]; A549, 250 ug/ml) of 52.91%. For the same compound, the Toxicity % ([2]; A549, 500 ug/ml) was 78.56%, the IC50 ([2]; Homo sapiens, A549, MTT, 48 h, average of triplicates, read-out: IC50 (μM) ± SD A549) was 1630 µM and the viability at 15.625 µg/mL ([2]; Homo sapiens, A549, 15.625 ug/ml) was 99.3%. The viability at 31.25 µg/mL ([2]; Homo sapiens, A549, 31.25 ug/ml) was 99.9%, the viability at 62.5 µg/mL ([2]; Homo sapiens, A549, 62.5 ug/ml) was 99% and the viability at 125 µg/mL ([2]; Homo sapiens, A549, 125 ug/ml) was 96.2%. For the same compound, the viability at 250 µg/mL ([2]; Homo sapiens, A549, 250 ug/ml) was 47.1%, the viability at 500 µg/mL ([2]; Homo sapiens, A549, 500 ug/ml) was 21.4% and the IC50 ([2]; Homo sapiens, A549, MTT report T-4-019-5, Conc. ug/ml, read-out: IC50) was 317 µg/mL. The Toxicity % ([3]; Caco2, 15.625 ug/ml) was 0.09606%, the Toxicity % ([3]; Caco2, 31.25 ug/ml) was 10.47% and the Toxicity % ([3]; Caco2, 62.5 ug/ml) was 52.83%. The Toxicity % ([3]; Caco2, 125 ug/ml) was 74.26%, the Toxicity % ([3]; Caco2, 250 ug/ml) was 79.92% and the Toxicity % ([3]; Caco2, 500 ug/ml) was 88.09%. It also gave a viability at 15.625 µg/mL ([3]; Homo sapiens, Caco-2, Caco2, 15.625 ug/ml) of 99.9%, a viability at 31.25 µg/mL ([3]; Homo sapiens, Caco-2, Caco2, 31.25 ug/ml) of 89.5% and a viability at 62.5 µg/mL ([3]; Homo sapiens, Caco-2, Caco2, 62.5 ug/ml) of 47.2%. For the same compound, the viability at 125 µg/mL ([3]; Homo sapiens, Caco-2, Caco2, 125 ug/ml) was 25.7%, the viability at 250 µg/mL ([3]; Homo sapiens, Caco-2, Caco2, 250 ug/ml) was 20.1% and the viability at 500 µg/mL ([3]; Homo sapiens, Caco-2, Caco2, 500 ug/ml) was 11.9%. The IC50 ([3]; Homo sapiens, Caco-2, Caco2, MTT report T-4-019-5, Conc. ug/ml, read-out: IC50) was 81.2 µg/mL, the IC50 ([3]; Homo sapiens, Caco-2, MTT, 48 h, average of triplicates, parent compounds and doxorubicin (Table 2), read-out: IC50 (μM) ± SD Caco-2) was 410 µM and the “%G0–G1” value [4] was 46.29 ± 3.1%. For the same compound, the “%G2/M” value [4] was 20.49 ± 1.92%, the “%S” value [4] was 33.22 ± 1.99% and the “%G0–G1” value ([4]; listed as s1) was 46.29%. For the same compound, the “%G2/M” value ([4]; listed as s1) was 20.49%, the “%S” value ([4]; listed as s1) was 33.22% and the “%Pre-G1” value [4] was 11.31 ± 0.81%. The “%Pre-G1” value ([4]; listed as caffeic acid) was 11.31%, the Toxicity % ([5]; HepG2, 15.625 ug/ml) was 0.202% and the Toxicity % ([5]; HepG2, 31.25 ug/ml) was 0.101%. For the same compound, the Toxicity % ([5]; HepG2, 62.5 ug/ml) was 0.5051%, the Toxicity % ([5]; HepG2, 125 ug/ml) was 13.64% and the Toxicity % ([5]; HepG2, 250 ug/ml) was 72.12%. The Toxicity % ([5]; HepG2, 500 ug/ml) was 83.94%, the IC50 ([5]; Homo sapiens, HepG2, MTT, 48 h, average of triplicates, read-out: IC50 (μM) ± SD HepG2) was 1030 µM and the viability at 15.625 µg/mL ([5]; Homo sapiens, HepG2, 15.625 ug/ml) was 99.8%. The viability at 31.25 µg/mL ([5]; Homo sapiens, HepG2, 31.25 ug/ml) was 99.9%, the viability at 62.5 µg/mL ([5]; Homo sapiens, HepG2, 62.5 ug/ml) was 99.5% and the viability at 125 µg/mL ([5]; Homo sapiens, HepG2, 125 ug/ml) was 86.4%. For the same compound, the viability at 250 µg/mL ([5]; Homo sapiens, HepG2, 250 ug/ml) was 27.9%, the viability at 500 µg/mL ([5]; Homo sapiens, HepG2, 500 ug/ml) was 16.1% and the IC50 ([5]; Homo sapiens, HepG2, MTT report T-4-019-5, Conc. ug/ml, read-out: IC50) was 201 µg/mL. The viability at 48 h, 15.625 ug/ml ([6]; 15.625 ug/ml) was 99.1%, the viability at 48 h, 31.25 ug/ml ([6]; 31.25 ug/ml) was 99% and the viability at 48 h, 62.5 ug/ml ([6]; 62.5 ug/ml) was 99.3%. For the same compound, the viability at 48 h, 125 ug/ml ([6]; 125 ug/ml) was 63.6%, the viability at 48 h, 250 ug/ml ([6]; 250 ug/ml) was 22.9% and the viability at 48 h, 500 ug/ml ([6]; 500 ug/ml) was 18.1%. The Toxicity % ([7]; 15.625 ug/ml) was 0.8516%, the Toxicity % ([7]; 31.25 ug/ml) was 0.9732% and the Toxicity % ([7]; 62.5 ug/ml) was 0.7299%. For the same compound, the Toxicity % ([7]; 125 ug/ml) was 36.37%, the Toxicity % ([7]; 250 ug/ml) was 77.13% and the Toxicity % ([7]; 500 ug/ml) was 81.87%. For the same compound, the IC50 ([7]; Chlorocebus sabaeus, MTT report T-4-019-5, Conc. ug/ml) was 176 µg/mL (≈ 977 µM).
